The numbers were not newly measured in US20120078160A1, “METHOD AND APPARATUS FOR CANCER THERAPY” (Gradiant Research, LLC, priority 2009, published 2012), which cites them from elsewhere.

Molecules are shown by their SMILES.

For orientation: pKa means the pH at which an ionisable group is half protonated.

Consider `O=c1[nH]cc(F)c(=O)[nH]1` [5FU, 5-fluorouracil], for which the pKa is listed as 7.93. Further, where the note is “pH 7.4”, the “Koct, octanol water partition coefficient” value was 0.129.
